The source made the active and inactive calls.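 How the source made its calls: active means inhibition of probe labelling of the enzyme band in the gel above 60%; inactive means inhibition at or below 60%.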
The compounds below were run on Fam108b (ABHD17B) serine hydrolase [Mus musculus] (assay: inhibition of membrane-bound mouse Fam108b, SAR follow-up, cell lysate, gel-based competitive ABPP, full-length membrane form, powders (AID 588585)). Conditions: Fam108b membrane proteome, competitive ABPP FP-Rh gel; at 5 µM; stronger effect = higher value.

inhibition, inactive:
Fc1ccccc1-c1nc2scc(-c3cccs3)c2c(=S)s1 0%, O=c1oc(-c2ccco2)cc2scc(-c3ccc(Br)cc3)c12 0%, O=c1[nH]c(-c2cccs2)nc2scc(-c3ccccc3)c12 0%, Cc1ccc(-c2csc3cc(-c4ccc(Br)cc4)oc(=O)c23)cc1 0%, O=c1[nH]c(-c2ccccc2)nc2scc(-c3cccs3)c12 0%, O=c1[nH]c(=S)[nH]c2scc(-c3ccccc3)c12 0%, O=c1[nH]c(-c2ccccc2)nc2scc(-c3ccccc3)c12 0%, O=c1[nH]c(=S)[nH]c2scc(-c3cccs3)c12 0%, Cc1ccc(C2NC(=O)c3c(sc4c3CCCC4)N2)cc1 (centres undefined) 0%, COc1ccc(C2NC(=O)c3c(sc(C)c3C)N2)cc1 (centres undefined) 0%, O=c1[nH]c(=O)c2c(-c3ccccc3)csc2[nH]1 0%, COc1ccc(-c2csc3cc(-c4ccccc4Cl)oc(=O)c23)cc1 0%, O=c1c2c(-c3ccccc3)csc2ncn1Cc1ccccc1 0%, CC(C)(C)c1nc2scc(-c3ccccc3)c2c(=S)s1 0%

Source: PubChem BioAssay AID588585 (The Scripps Research Institute Molecular Screening Center, 2011)
